Data: patent US9808527B2, “Methods and compositions for treating HIV infections” (priority 2006, dated 2017)

melting point: 90 to 93 °C
SMILES: CC(C)CN(C[C@@H](O)[C@H](Cc1ccccc1)NC(=O)OC1CO[C@H]2OCCC12)S(=O)(=O)c1cccc(O)c1 (stereo partly shown)
